# What was measured:
# [1] = in vitro; format: cell-based; conditions: human
# Protocol: Example C: CC50 MT4 Cytotoxicity of the compounds was determined in uninfected cells using the cell viability reagent in a similar fashion as described before for other cell types ([…] et al., Antimicrob Agents Chemother. 2008,52(2):655-65). […] Cells were cultured for 4-5 days at 37° C. Following the incubation, the cells were allowed to equilibrate to 25° C., and cell viability was determined by adding Cell-Titer Glo viability reagent. The mixture was incubated for 10 min, and the luminescence signal was quantified using an Envision plate reader. Untreated cell and cells treated at 2 μM puromycin (Sigma, St. Louis, MO) serve as 100% and 0% cell viability control, respectively. The percent of cell viability was calculated for each tested compound concentration relative to the 0% and 100% controls and the CC50 value was determined by non-linear regression as a compound concentration reducing the cell viability by 50%.
# [2] = in vitro; format: in vitro ADME; conditions: human, s9, pH 7.4
# Protocol: Example D: GI S9 Stability […] The S9 metabolic reactions were initiated by the addition of the substrates to the S9 reaction mixture to a final concentration of 2 μM. […] Aliquots ([…]) of the diluted supernatant were analyzed on a Thermo Q-Exactive mass spectrometer as described below. Example F: Liquid Chromatography/Mass Spectroscopy Methods for S9 and Plasma Stability Quantification of test compounds, Reference Compound A (S9 stability assay nucleoside metabolite), and controls was performed by analyte/internal standard peak area ratio (PAR) values measured on a Thermo Q-Exactive mass spectrometer coupled to a Dionex UltiMate 3000 HPLC with a Leap Technologies HTC PAL autosampler. […] Mobile phase A consisted of 0.1% (v/v) formic acid in water. Mobile phase B consisted of 0.1% (v/v) formic acid in acetonitrile. Elution of analytes was achieved by a series of linear gradients of acetonitrile in water containing 0.10% (v/v) formic acid. The mass spectrometer was calibrated on a weekly basis and mass tolerance of 5 ppm was used.
# [3] = system: RSV-Luc5; experiment: microbe, parasite or virus in culture; format: cell-based; conditions: human respiratory syncytial virus, NHBE, 72 h, read-out: RSV NHBE EC50 (nM)
# [4] = system: SARS-CoV2-NLuc; experiment: microbe, parasite or virus in culture; format: cell-based, SARS Coronavirus 2; conditions: Severe acute respiratory syndrome coronavirus 2, 48 h, read-out: SARS-CoV2 EC50 (nM)
# [5] = system: Caco-2 cells (clone C2BBe1); conditions: human, Caco-2
# [6] = in vitro; conditions: human, plasma
Structure (SMILES),CC50 [1],half-life at 2 μM [2],EC50 [3],EC50 [4],Caco2 A to B [5],Caco2 B to A [5],half-life at 2 μM [6]
"CC(C)OC(=O)OC[C@H]1O[C@@](C#N)(c2ccc3c(N)ncnn23)C2OC(=O)CCC(=O)OC21 (stereo partly drawn) [Compound C1, ((7R,9R)-9-(4-aminopyrrolo[2,1-f][1,2,4]triazin-7-yl)-9-cyano-2,5-dioxooctahydrofuro[3,4-b][1,4]dioxocin-7-yl)methyl isopropyl carbonate]",> 50 µM,0.716 min,–,–,–,–,–
"CC(C)OC(=O)OC[C@H]1O[C@@](C#N)(c2ccc3c(N)ncnn23)[C@@H]2OC(=O)CCCCCCC(=O)O[C@@H]21 [Compound C5, ((10aR,11R,13R,13aR)-13-(4-aminopyrrolo[2,1-f][1,2,4]triazin-7-yl)-13-cyano-2,9-dioxododecahydrofuro[3,4-b][1,4]dioxacyclododecin-11-yl)methyl isopropyl carbonate]",> 50 µM,0.754 min,–,–,–,–,–
"N#C[C@@]1(c2ccc3c(N)ncnn23)O[C@H](CO)[C@H]2OC(=O)CCCC(=O)O[C@H]21 [Compound C10, (7aR,8R,10R,10aR)-8-(4-aminopyrrolo[2,1-f][1,2,4]triazin-7-yl)-10-(hydroxymethyl)-2,6-dioxooctahydro-2H-furo[3,4-b][1,4]dioxonine-8-carbonitrile]",> 50 µM,0.768 min,–,–,–,–,–
"CC1(C)[C@H]2CC[C@@](C)(C2)[C@H]1OC(=O)OC[C@H]1O[C@@](C#N)(c2ccc3c(N)ncnn23)[C@@H]2OC(=O)CCCC(=O)O[C@@H]21 [Compound C28, ((7aR,8R,10R,10aR)-10-(4-aminopyrrolo[2,1-f][1,2,4]triazin-7-yl)-10-cyano-2,6-dioxooctahydro-2H-furo[3,4-b][1,4]dioxonin-8-yl)methyl ((1S,2R,4S)-1,3,3-trimethylbicyclo[2.2.1]heptan-2-yl) carbonate]",18 µM,0.595 min,7110 nM,21700 nM,–,–,–
"CC1(C)CC(=O)O[C@H]2[C@@H](OC(=O)C1)[C@](C#N)(c1ccc3c(N)ncnn13)O[C@@H]2COC(=O)OC(C)(C)c1ccncc1 [Compound C34, ((7aR,8R,10R,10aR)-10-(4-aminopyrrolo[2,1-f][1,2,4]triazin-7-yl)-10-cyano-4,4-dimethyl-2,6-dioxooctahydro-2H-furo[3,4-b][1,4]dioxonin-8-yl)methyl (2-(pyridin-4-yl)propan-2-yl) carbonate]",> 50 µM,44.7 min,> 50000 nM,8120 nM,–,–,–
"CC1(C)CC(=O)O[C@H]2[C@@H](OC(=O)C1)[C@](C#N)(c1ccc3c(N)ncnn13)O[C@@H]2COC(=O)OCCN1CCOCC1 [Compound C36, ((7aR,8R,10R,10aR)-10-(4-aminopyrrolo[2,1-f][1,2,4]triazin-7-yl)-10-cyano-4,4-dimethyl-2,6-dioxooctahydro-2H-furo[3,4-b][1,4]dioxonin-8-yl)methyl (2-morpholinoethyl) carbonate]",> 50 µM,31.6 min,> 50000 nM,> 50000 nM,–,–,–
"CCC(CC)COC(=O)OC[C@H]1O[C@@](C#N)(c2ccc3c(N)ncnn23)[C@@H]2OC(=O)CC(C)(C)CC(=O)O[C@@H]21 [Compound C38, ((7aR,8R,10R,10aR)-10-(4-aminopyrrolo[2,1-f][1,2,4]triazin-7-yl)-10-cyano-4,4-dimethyl-2,6-dioxooctahydro-2H-furo[3,4-b][1,4]dioxonin-8-yl)methyl (2-ethylbutyl) carbonate]",30.9 µM,7.17 min,> 50000 nM,38300 nM,–,–,–
"COC(C)(C)COC(=O)OC[C@H]1O[C@@](C#N)(c2ccc3c(N)ncnn23)[C@@H]2OC(=O)CC(C)(C)CC(=O)O[C@@H]21 [Compound C39, ((7aR,8R,10R,10aR)-10-(4-aminopyrrolo[2,1-f][1,2,4]triazin-7-yl)-10-cyano-4,4-dimethyl-2,6-dioxooctahydro-2H-furo[3,4-b][1,4]dioxonin-8-yl)methyl (2-methoxy-2-methylpropyl) carbonate]",> 50 µM,9.97 min,> 50000 nM,8580 nM,2,7.17,–
"CC1(C)CC(=O)O[C@H]2[C@@H](OC(=O)C1)[C@](C#N)(c1ccc3c(N)ncnn13)O[C@@H]2COC(=O)OCC1(C#N)CC1 [Compound C41, ((7aR,8R,10R,10aR)-10-(4-aminopyrrolo[2,1-f][1,2,4]triazin-7-yl)-10-cyano-4,4-dimethyl-2,6-dioxooctahydro-2H-furo[3,4-b][1,4]dioxonin-8-yl)methyl ((1-cyanocyclopropyl)methyl) carbonate]",> 50 µM,4.17 min,> 50000 nM,> 50000 nM,0.54,6.77,–
"CC1(C)CC(=O)O[C@H]2[C@@H](OC(=O)C1)[C@](C#N)(c1ccc3c(N)ncnn13)O[C@@H]2COC(=O)OC(C)(C)C(F)F [Compound C42, ((7aR,8R,10R,10aR)-10-(4-aminopyrrolo[2,1-f][1,2,4]triazin-7-yl)-10-cyano-4,4-dimethyl-2,6-dioxooctahydro-2H-furo[3,4-b][1,4]dioxonin-8-yl)methyl (1,1-difluoro-2-methylpropan-2-yl) carbonate]",> 50 µM,27.7 min,> 50000 nM,> 50000 nM,–,–,–
"CCOC(=O)C(C)(C)OC(=O)OC[C@H]1O[C@@](C#N)(c2ccc3c(N)ncnn23)[C@@H]2OC(=O)CC(C)(C)CC(=O)O[C@@H]21 [Compound C43, ethyl 2-(((((7aR,8R,10R,10aR)-10-(4-aminopyrrolo[2,1-f][1,2,4]triazin-7-yl)-10-cyano-4,4-dimethyl-2,6-dioxooctahydro-2H-furo[3,4-b][1,4]dioxonin-8-yl)methoxy)carbonyl)oxy)-2-methylpropanoate]",> 50 µM,19.7 min,> 50000 nM,> 50000 nM,2.93,11.62,–
"CC1(C)CC(=O)O[C@H]2[C@@H](OC(=O)C1)[C@](C#N)(c1ccc3c(N)ncnn13)O[C@@H]2COC(=O)O[C@H]1C(C)(C)[C@H]2CC[C@@]1(C)C2 [Compound C45, ((7aR,8R,10R,10aR)-10-(4-aminopyrrolo[2,1-f][1,2,4]triazin-7-yl)-10-cyano-4,4-dimethyl-2,6-dioxooctahydro-2H-furo[3,4-b][1,4]dioxonin-8-yl)methyl ((1S,2R,4S)-1,3,3-trimethylbicyclo[2.2.1]heptan-2-yl) carbonate]",12.6 µM,37.3 min,4160 nM,9170 nM,–,–,–
"CC(C)(C)COC(=O)OC[C@H]1O[C@@](C#N)(c2ccc3c(N)ncnn23)[C@@H]2OC(=O)CC(C)(C)CC(=O)O[C@@H]21 [Compound C46, ((7aR,8R,10R,10aR)-10-(4-aminopyrrolo[2,1-f][1,2,4]triazin-7-yl)-10-cyano-4,4-dimethyl-2,6-dioxooctahydro-2H-furo[3,4-b][1,4]dioxonin-8-yl)methyl neopentyl carbonate]",> 50 µM,4.71 min,11700 nM,> 50000 nM,–,–,–
"N#C[C@@]1(c2ccc3c(N)ncnn23)O[C@H](COC(=O)OC2CNC2)[C@H]2OC(=O)CCCC(=O)O[C@H]21 [Compound C50, ((7aR,8R,10R,10aR)-10-(4-aminopyrrolo[2,1-f][1,2,4]triazin-7-yl)-10-cyano-2,6-dioxooctahydro-2H-furo[3,4-b][1,4]dioxonin-8-yl)methyl azetidin-3-yl carbonate 2,2,2-trifluoroacetate]",> 50 µM,1.91 min,14500 nM,3110 nM,–,–,–
"CC1(C)CC(=O)O[C@H]2[C@@H](OC(=O)C1)[C@](C#N)(c1ccc3c(N)ncnn13)O[C@@H]2COC(=O)OC1CNC1 [Compound C51, ((7aR,8R,10R,10aR)-10-(4-aminopyrrolo[2,1-f][1,2,4]triazin-7-yl)-10-cyano-4,4-dimethyl-2,6-dioxooctahydro-2H-furo[3,4-b][1,4]dioxonin-8-yl)methyl azetidin-3-yl carbonate 2,2,2-trifluoroacetate]",> 50 µM,26.6 min,> 50000 nM,> 50000 nM,–,–,–
"N#C[C@@]1(c2ccc3c(N)ncnn23)O[C@H](COC(=O)C2CCC2)[C@H]2OC(=O)CCCC(=O)O[C@H]21 [Compound C57, ((7aR,8R,10R,10aR)-10-(4-aminopyrrolo[2,1-f][1,2,4]triazin-7-yl)-10-cyano-2,6-dioxooctahydro-2H-furo[3,4-b][1,4]dioxonin-8-yl)methyl cyclobutanecarboxylate]",> 50 µM,–,3780 nM,3000 nM,–,–,7.33 min
